In US20220354840A1, “NICOTINE POUCH” (Enorama Pharma AB, priority 2019, published 2022):
Where two headings read alike, the source gives them in different places.

Columns and labels:
[1] = cited from earlier work
[2] = Stability study: degradation products by HPLC-UV; format: physicochemical; details: pre-stressed sample, elevated temperature and light
Protocol: • nicotine release at 30 min • degradation product Pouch samples from Example 1 were stored in a plastic container with closed (but not hermetically sealed) lid at 21-22° C./60-62% RH for up to 3 months. The release of nicotine at 30 min for the pouch product stored for 1 month at 21-22° C./60-62% RH was analyzed, using the UV spectrophotometrical method described above.
Pouch samples from Example 1 were also analyzed for the detection of potential degradation products, using HPLC-UV method (Agilent 1200 series HPLC). Samples with the same excipients but without the nicotine API and samples with the nicotine API was used to identify reference (blank) peaks. A pre-stressed sample of nicotine was prepared (using elevated temperature and light) to reveal any peaks originating from heat- and light-induced degradation of nicotine. […] The obtained peaks in the chromatogram corresponds to nicotine or solvent injection peak. The chromatogram from the HPLC-UV analysis of pre-stressed sample of nicotine (FIG. 5A), which was compared to the chromatogram of nicotine bitartrate dihydrate spiked into the reference sample without API (FIG. 5B).

| Compound | Solubility in water (descriptive) [1] | also measured |
| --- | --- | --- |
| CC1=CC(=O)NS(=O)(=O)O1 [Acesulfame K, Acesulfame potassium] | High solubility: | Solubility in water ([1]; at 20° C.): 270 mg/ml at 20 °C |
| OC[C@@H](O)[C@@H](O)[C@H](O)[C@H](O)CO [D-Mannitol] | Very soluble | Solubility in water ([1]; at 25° C.): 216 mg/ml at 25 °C |
| CC(C)[C@@H]1CC[C@@H](C)C[C@H]1O [L-Menthol] | Low soluble | – |
| CC(O)CO (centres unmarked) [Propylene glycol] | Soluble | – |
| OC[C@@H](O)[C@H](O)[C@@H](O)CO [Xylitol] | Very soluble | – |
| CN1CCCC1c1cccnc1 (centres unmarked) [nicotine] | – | peaks from potential degradation products (HPLC-UV) [2]: No additional peaks from potential degradation products |
